Assay results published in patent US20080139623A1, “Amorphous and crystalline forms of pantoprazole magnesium salt” (priority 2006, published 2008).

What was measured:
Format in all cases: physicochemical
[1] = Solubility in water at 25° C. (saturated solution, HPLC assay); conditions: for solubility: in water at 25° C.
Protocol: The solubilities of amorphous pantoprazole magnesium and pantoprazole magnesium Form A were each measured in water at 25° C. The certain amount of amorphous sample and form A sample were added each to 50 ml of distillated water. The solutions were kept saturated during the experiment. The aliquots were taken, filtered and injected into HPLC by the method of assay determination for PNT-Mg and the concentrations were calculated by comparison of absorptions at certain wavelength against the known concentration of PNT-Mg standard.

[2] = Analysis of particle size by light microscope in light oil
Source text: Samples of crystalline pantoprazole magnesium Forms A (prepared according to example 15), E, F, G, and H were each analyzed by light microscope in light oil. The results are depicted in FIGS. 29-33, respectively.

[3] = Stability of crystalline form under heating (100° C., two weeks, PXRD); conditions: heated at 100° C. for two weeks, analyzed by PXRD
Protocol: The powder X-ray diffraction was performed on Scintag X-ray powder diffractometer model X'TRA with a solid state detector. Copper radiation of 1.5418 Å was used. The sample holder was a round standard aluminum sample holder with rough zero background. The scanning parameters were range: 2-40 degrees two-theta; scan mode: continuous scan; step size: 0.05 deg.; and at a rate of 5 deg/min.
Samples of crystalline pantoprazole magnesium Form C and Form A (prepared according to example 15) were each heated at 100° C. for two weeks. The samples were then analyzed by PXRD.

Row | Substance | particle shape / description [2] | particle size [2] | other results
1 | 5-difluoromethoxy-2-[[3,4-dimethoxy-2-pyridinyl)methyl]sulfinyl]-1H-benzimidazole magnesium salt [Form A, reference compound] | plate-shaped particles | less than 50 microns | solubility [1]: about 0.2 mg/ml; crystalline form after heating (polymorphic stability) [3]: transformed to amorphous form
2 | 5-difluoromethoxy-2-[[3,4-dimethoxy-2-pyridinyl)methyl]sulfinyl]-1H-benzimidazole magnesium salt [Form C] | – | – | crystalline form after heating (polymorphic stability) [3]: maintained its crystalline form
3 | 5-difluoromethoxy-2-[[3,4-dimethoxy-2-pyridinyl)methyl]sulfinyl]-1H-benzimidazole magnesium salt [Form E] | plate-shaped particles | less than 20 microns | –
4 | 5-difluoromethoxy-2-[[3,4-dimethoxy-2-pyridinyl)methyl]sulfinyl]-1H-benzimidazole magnesium salt [Form F] | spherical particles | – | –
5 | 5-difluoromethoxy-2-[[3,4-dimethoxy-2-pyridinyl)methyl]sulfinyl]-1H-benzimidazole magnesium salt [Form G] | – | less than 10 microns | –
6 | 5-difluoromethoxy-2-[[3,4-dimethoxy-2-pyridinyl)methyl]sulfinyl]-1H-benzimidazole magnesium salt [Form H] | very small particles | – | –
7 | 5-difluoromethoxy-2-[[3,4-dimethoxy-2-pyridinyl)methyl]sulfinyl]-1H-benzimidazole magnesium salt [amorphous pantoprazole magnesium] | – | – | solubility [1]: about 1.3 mg/ml; solubility in water relative to crystalline Form A ([1]; in water, amorphous form versus Form A prepared according to the '464 patent): approximately 6.5 times
